What was measured:
Type in all cases: in vivo
[1] = tested on: upland rice (Oryza sp., var. Tebonnet, RICE); assay: Pre-emerge test, crop safety; conditions: rating scale 0-100, 14 days after application
How it was run: (§1)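 Plants grown in 10 cm pots of sandy loam mix received acetone-dissolved compounds through a moving flat-fan nozzle. Doses ranged from 15 to 1000 g ai/ha. Pre-emerge pots were seeded one day earlier, post-emerge pots 8–21 days earlier. Fourteen days on, each pot was graded 0–100 for damage.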

[2] = tested on: field corn (Zea mays L., var. Dekalb 535, CORN); assay: Pre-emerge test, crop safety; conditions: rating scale 0-100, 14 days after application
How it was run: as §1

[3] = tested on: sicklepod (Cassia obtusifolia, CASOB); assay: Pre-emerge test, greenhouse herbicide activity screening; conditions: rating scale 0-100, 14 days after application
How it was run: (§2)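 Rating: 0–100 visual injury, 14 DAA. Application: acetone, 187 l/ha, 15–1000 g ai/ha, flat-fan track sprayer with nozzle 40–45 cm above soil or canopy. Post-emerge runs used 0.25% v/v surfactant on 2–3 leaf plants.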

[4] = tested on: green foxtail (Setaria viridis, SETVI); assay: as above; conditions: rating scale 0-100, 14 days after application
How it was run: as §2

[5] = tested on: barnyardgrass (Echinochloa crus-galli, ECHCG); assay: as above; conditions: rating scale 0-100, 14 days after application
How it was run: as §2

[6] = tested on: johnsongrass (Sorghum halepense, SORHA); assay: as above; conditions: rating scale 0-100, 14 days after application
How it was run: as §2

[7] = tested on: velvetleaf (Abutilon theophrasti, ABUTH); assay: as above; conditions: rating scale 0-100, 14 days after application
How it was run: as §2

[8] = tested on: ivyleaf morningglory (Ipomoea hederacea, IPOHE); assay: as above; conditions: rating scale 0-100, 14 days after application
How it was run: as §2

[9] = tested on: lambsquarters (Chenopodium album, CHEAL); assay: as above; conditions: rating scale 0-100, 14 days after application
How it was run: as §2

[10] = tested on: large crabgrass (Digitaria sanguinalis, DIGSA); assay: as above; conditions: rating scale 0-100, 14 days after application
How it was run: as §2

[11] = tested on: sicklepod (Cassia obtusifolia, CASOB); assay: Post-emerge test, greenhouse herbicide activity screening; conditions: rating scale 0-100 (0 no damage, 100 complete death), 14 days after application
How it was run: (§3)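 Compounds in acetone were track-sprayed at 15-1000 g ai/ha (187 l/ha) on sandy loam pots: pre-emerge one day after seeding, post-emerge at 2-3 leaf stage with 0.25% v/v non-ionic surfactant. Phytotoxicity was rated 14 days later on a 0 (no damage) to 100 (complete death) scale.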

[12] = tested on: green foxtail (Setaria viridis, SETVI); assay: as above; conditions: rating scale 0-100 (0 no damage, 100 complete death), 14 days after application
How it was run: as §3

[13] = tested on: barnyardgrass (Echinochloa crus-galli, ECHCG); assay: as above; conditions: rating scale 0-100 (0 no damage, 100 complete death), 14 days after application
How it was run: as §3

[14] = tested on: common ragweed (Ambrosia artemisizfolia L., AMBEL); assay: as above; conditions: rating scale 0-100 (0 no damage, 100 complete death), 14 days after application
How it was run: as §3

[15] = tested on: johnsongrass (Sorghum halepense, SORHA); assay: as above; conditions: rating scale 0-100 (0 no damage, 100 complete death), 14 days after application
How it was run: as §3

[16] = tested on: velvetleaf (Abutilon theophrasti, ABUTH); assay: as above; conditions: rating scale 0-100 (0 no damage, 100 complete death), 14 days after application
How it was run: as §3

[17] = tested on: redroot pigweed (Amaranthus retroflexus, AMARE); assay: as above; conditions: rating scale 0-100 (0 no damage, 100 complete death), 14 days after application
How it was run: as §3

[18] = tested on: ivyleaf morningglory (Ipomoea hederacea, IPOHE); assay: as above; conditions: rating scale 0-100 (0 no damage, 100 complete death), 14 days after application
How it was run: as §3

[19] = tested on: lambsquarters (Chenopodium album, CHEAL); assay: as above; conditions: rating scale 0-100 (0 no damage, 100 complete death), 14 days after application
How it was run: as §3

[20] = tested on: large crabgrass (Digitaria sanguinalis, DIGSA); assay: as above; conditions: rating scale 0-100 (0 no damage, 100 complete death), 14 days after application
How it was run: as §3

[21] = tested on: redroot pigweed (Amaranthus retroflexus, AMARE); assay: Pre-emerge test, greenhouse herbicide activity screening; conditions: rating scale 0-100, 14 days after application
How it was run: as §1

[22] = tested on: upland rice (Oryza sp., var. Tebonnet, RICE); assay: Post-emerge test, crop safety; conditions: rating scale 0-100 (0 no damage, 100 complete death), 14 days after application
How it was run: as §1

[23] = tested on: field corn (Zea mays L., var. Dekalb 535, CORN); assay: Post-emerge test, crop safety; conditions: rating scale 0-100 (0 no damage, 100 complete death), 14 days after application
How it was run: as §1

COc1c(Cl)cc(F)c(-n2c(=O)cc(C(F)(F)F)n(C)c2=O)c1CC(Cl)C(=O)OCC(C)C (single isomer, unassigned) [14-14]
Pre-emerge phytotoxicity rating, crop damage RICE ([1]; 63 g ai/ha): 0 | Pre-emerge phytotoxicity rating, crop damage RICE ([1]; 250 g ai/ha): 20 | Pre-emerge phytotoxicity rating, crop damage CORN ([2]; 63 g ai/ha): 0 | Pre-emerge phytotoxicity rating, crop damage CORN ([2]; 250 g ai/ha): 0 | Pre-emerge herbicidal activity, phytotoxicity rating CASOB ([3]; 63 g ai/ha): 0 | Pre-emerge herbicidal activity, phytotoxicity rating CASOB ([3]; 250 g ai/ha): 0 | Pre-emerge herbicidal activity, phytotoxicity rating SETVI ([4]; 63 g ai/ha): 0 | Pre-emerge herbicidal activity, phytotoxicity rating SETVI ([4]; 250 g ai/ha): 50 | Pre-emerge herbicidal activity, phytotoxicity rating ECHCG ([5]; 63 g ai/ha): 0 | Pre-emerge herbicidal activity, phytotoxicity rating ECHCG ([5]; 250 g ai/ha): 10 | Pre-emerge herbicidal activity, phytotoxicity rating SORHA ([6]; 63 g ai/ha): 0 | Pre-emerge herbicidal activity, phytotoxicity rating SORHA ([6]; 250 g ai/ha): 0 | Pre-emerge herbicidal activity, phytotoxicity rating ABUTH ([7]; 63 g ai/ha): 0 | Pre-emerge herbicidal activity, phytotoxicity rating ABUTH ([7]; 250 g ai/ha): 20 | Pre-emerge herbicidal activity, phytotoxicity rating IPOHE ([8]; 63 g ai/ha): 0 | Pre-emerge herbicidal activity, phytotoxicity rating IPOHE ([8]; 250 g ai/ha): 20 | Pre-emerge herbicidal activity, phytotoxicity rating CHEAL ([9]; 63 g ai/ha): 60 | Pre-emerge herbicidal activity, phytotoxicity rating CHEAL ([9]; 250 g ai/ha): 100 | Pre-emerge herbicidal activity, phytotoxicity rating DIGSA ([10]; 63 g ai/ha): 50 | Pre-emerge herbicidal activity, phytotoxicity rating DIGSA ([10]; 250 g ai/ha): 90 | Post-emerge Herbicidal Activity, phytotoxicity rating CASOB ([11]; Rate 63 g ai/ha): 0 | Post-emerge Herbicidal Activity, phytotoxicity rating CASOB ([11]; Rate 250 g ai/ha): 60 | Post-emerge Herbicidal Activity, phytotoxicity rating SETVI ([12]; Rate 63 g ai/ha): 50 | Post-emerge Herbicidal Activity, phytotoxicity rating SETVI ([12]; Rate 250 g ai/ha): 70 | Post-emerge Herbicidal Activity, phytotoxicity rating ECHCG ([13]; Rate 63 g ai/ha): 100 | Post-emerge Herbicidal Activity, phytotoxicity rating ECHCG ([13]; Rate 250 g ai/ha): 100 | Post-emerge Herbicidal Activity, phytotoxicity rating AMBEL ([14]; Rate 63 g ai/ha): 70 | Post-emerge Herbicidal Activity, phytotoxicity rating AMBEL ([14]; Rate 250 g ai/ha): 70 | Post-emerge Herbicidal Activity, phytotoxicity rating SORHA ([15]; Rate 63 g ai/ha): 0 | Post-emerge Herbicidal Activity, phytotoxicity rating SORHA ([15]; Rate 250 g ai/ha): 20 | Post-emerge Herbicidal Activity, phytotoxicity rating ABUTH ([16]; Rate 63 g ai/ha): 50 | Post-emerge Herbicidal Activity, phytotoxicity rating ABUTH ([16]; Rate 250 g ai/ha): 100 | Post-emerge Herbicidal Activity, phytotoxicity rating AMARE ([17]; Rate 63 g ai/ha): 50 | Post-emerge Herbicidal Activity, phytotoxicity rating AMARE ([17]; Rate 250 g ai/ha): 100 | Post-emerge Herbicidal Activity, phytotoxicity rating IPOHE ([18]; Rate 63 g ai/ha): 30 | Post-emerge Herbicidal Activity, phytotoxicity rating IPOHE ([18]; Rate 250 g ai/ha): 50 | Post-emerge Herbicidal Activity, phytotoxicity rating CHEAL ([19]; Rate 63 g ai/ha): 50 | Post-emerge Herbicidal Activity, phytotoxicity rating CHEAL ([19]; Rate 250 g ai/ha): 90 | Post-emerge Herbicidal Activity, phytotoxicity rating DIGSA ([20]; Rate 63 g ai/ha): 90 | Post-emerge Herbicidal Activity, phytotoxicity rating DIGSA ([20]; Rate 250 g ai/ha): 100 | Pre-emerge herbicidal activity, phytotoxicity rating AMARE ([21]; 63 g ai/ha): 100 | Pre-emerge herbicidal activity, phytotoxicity rating AMARE ([21]; 250 g ai/ha): 100 | Post-emerge phytotoxicity rating RICE (crop damage) ([22]; Rate 63 g ai/ha): 0 | Post-emerge phytotoxicity rating RICE (crop damage) ([22]; Rate 250 g ai/ha): 30 | Post-emerge phytotoxicity rating CORN (crop damage) ([23]; Rate 63 g ai/ha): 10 | Post-emerge phytotoxicity rating CORN (crop damage) ([23]; Rate 250 g ai/ha): 50
